# Source: US12172975B2, “1H-indazole carboxamides as receptor-interacting protein kinase 1 inhibitors (RIPK1)” (BRISTOL-MYERS SQUIBB COMPANY, priority 2018, dated 2024)
# Counter-ions that a name gives are not always drawn.
# Assays:
# [1] = test system: MLKL phosphorylation in HT29-L23 human colorectal adenocarcinoma cells; assay: MLKL Phosphorylation High-Content Assay; format: cell-based; conditions: Homo sapiens, 6 h, necroptosis induced with TNFα, SMAC mimetic and Z-VAD, read-out: pMLKL (IC50)
# Method in brief: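 HT29-L23 cells were induced to necroptosis with TNFα (35 ng/mL), SMAC mimetic (700 nM) and Z-VAD (140 nM) for 6 h at 37 °C. Phospho-MLKL (S358) immunofluorescence was imaged and quantified per cell; maximal inhibition set by Nec-1s (6.25 μM), and IC50/Ymax from 4-parameter logistic fit.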
# [2] = target: His-GST-TVMV-hRIPK1 (1-324) (Homo sapiens (Human), UniProt Q13546); assay: RIPK1 HTRF Binding Assay; conditions: read-out: RIPK1 HTRF (IC50); FRET probe displacement, 1 h at rt
# His-GST-TVMV-hRIPK1 (1-324), sequence (Q13546 1-324): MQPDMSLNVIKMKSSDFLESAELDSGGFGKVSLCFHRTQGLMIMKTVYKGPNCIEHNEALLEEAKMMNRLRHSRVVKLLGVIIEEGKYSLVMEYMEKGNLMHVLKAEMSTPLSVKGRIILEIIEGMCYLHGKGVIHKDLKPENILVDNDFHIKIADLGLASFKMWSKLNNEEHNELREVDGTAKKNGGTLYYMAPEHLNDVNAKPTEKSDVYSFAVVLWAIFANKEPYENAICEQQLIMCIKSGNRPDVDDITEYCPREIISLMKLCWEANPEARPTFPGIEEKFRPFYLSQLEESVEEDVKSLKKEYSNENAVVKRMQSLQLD
# Method: A solution was prepared containing 0.2 nM Anti GST-Tb (Cisbio, 61GSTTLB), 90.6 nM probe and 1 nM His-GST-TVMV-hRIPK1 (1-324) in FRET Buffer (20 mM HEPES, 10 mM MgCl2, 0.015% Brij-35, 4 mM DTT, 0.05 mg/mL BSA). Using Formulatrix Tempest, the detection antibody/enzyme/probe solution (2 mL) was dispensed into wells of a 1536 plate (Black Low Binding Polystyrene 1536 Plate (Corning, 3724)) containing 10 nL of compounds of interest at appropriate concentration in DMSO. The plate was incubated at rt for 1 h. FRET was measured using the EnVision plate reader (Excitation: 340 nm, Emission: 520 nm/495 nM). Total signal (0% inhibition) was calculated from wells containing 10 nL DMSO only.
SMILES,IC50 [1] [nM],IC50 [2] [nM]
"CNC(=O)c1n[nH]c2cc(-c3cc(C(=O)NCC4CCCC4(C)C)c(OC)nc3C)ccc12 (centres unmarked) [Example 159, 6-(5-{[(2,2-dimethylcyclo-pentyl)methyl]carbamoyl}-6-methoxy-2-methyl-pyridin-3-yl)-N-methyl-1H-indazole-3-carboxamide]",110,34
"CNC(=O)c1n[nH]c2cc(-c3cc(C(=O)NCc4cccc(OC(F)(F)F)c4)c(OC)nc3C)ccc12 [Example 160, 6-[6-methoxy-2-methyl-5-({[3-(trifluoromethoxy)-phenyl]methyl}carbamoyl)-pyridin-3-yl]-N-methyl-1H-indazole-3-carboxamide]",120,27
"CNC(=O)c1n[nH]c2cc(-c3cc(C(=O)NC(C)c4ccccc4OC(F)(F)F)c(C)nc3C)ccc12 (centres unmarked) [Example 162, 6-[2,6-dimethyl-5-({1-[2-(trifluoromethoxy)phenyl]-ethyl}carbamoyl)pyridin-3-yl]-N-methyl-1H-indazole-3-carboxamide]",74,43
"[2H]C([2H])([2H])Oc1ncc(-c2ccc3c(C(=O)NCC4CC4)n[nH]c3c2)cc1C(=O)NCCC(=O)OC(C)(C)C [Example 165, tert-butyl 3-[(5-{3-[(cyclopropyl-methyl)carbamoyl]-1H-indazol-6-yl}-2-(deutero)methoxypyridin-3-yl)formamido]propanoate]",15,140
"[2H]C([2H])([2H])Oc1ncc(-c2ccc3c(C(=O)NCC4CC4)n[nH]c3c2)cc1C(=O)NC(C)c1cccc(OC(F)(F)F)c1 (centres unmarked) [Example 166, N-(cyclopropylmethyl)-6-[6-(deutero)methoxy-5-({1-[3-(tri-fluoromethoxy)phenyl]ethyl}-carbamoyl)pyridin-3-yl]-1H-indazole-3-carboxamide]",34,83
"[2H]C([2H])([2H])Oc1ncc(-c2ccc3c(C(=O)NCC4CC4)n[nH]c3c2)cc1C(=O)NC(C)c1ccccc1OC(F)(F)F (centres unmarked) [Example 168, N-(cyclopropylmethyl)-6-[6-(deutero)methoxy-5-({1-[2-(tri-fluoromethoxy)phenyl]ethyl}-carbamoyl)pyridin-3-yl]-1H-indazole-3-carboxamide]",17,38
"COc1ncc(-c2ccc3c(C(=O)NC4CCN(S(C)(=O)=O)CC4)n[nH]c3c2)cc1C(=O)NCc1ccccc1OC(F)(F)F [Example 169, N-(1-methanesulfonylpiperidin-4-yl)-6-[6-methoxy-5-({[2-(trifluoromethoxy)phenyl]-methyl}carbamoyl)pyridin-3-yl]-1H-indazole-3-carboxamide]",31,22
"CCNC(=O)c1n[nH]c2cc(-c3cnc(OC)c(C(=O)NCc4ccccc4OC(F)(F)F)c3)ccc12 [Example 170, N-ethyl-6-[6-methoxy-5-({[2-(trifluoromethoxy)phenyl]-methyl}carbamoyl)pyridin-3-yl]-1H-indazole-3-carboxamide]",23,7.9
"COc1ncc(-c2ccc3c(C(=O)NCC4CC4)n[nH]c3c2)cc1C(=O)NCc1ccccc1OC(F)(F)F [Example 172, N-(cyclopropylmethyl)-6-[6-methoxy-5-({[2-(trifluoro-methoxy)phenyl]methyl}-carbamoyl)pyridin-3-yl]-1H-indazole-3-carboxamide]",28,14
"CCCCNC(=O)c1n[nH]c2cc(-c3cnc(OC)c(C(=O)NCc4ccccc4OC(F)(F)F)c3)ccc12 [Example 175, N-butyl-6-[6-methoxy-5-({[2-(trifluoromethoxy)phenyl]-methyl}carbamoyl)pyridin-3-yl]-1H-indazole-3-carboxamide]",29,9.9
"CCCNC(=O)c1n[nH]c2cc(-c3cnc(OC)c(C(=O)NCc4ccccc4OC(F)(F)F)c3)ccc12 [Example 176, 6-[6-methoxy-5-({[2-(trifluoro-methoxy)phenyl]methyl}carbam-oyl)pyridin-3-yl]-N-propyl-1H-indazole-3-carboxamide]",16,10
"COc1ncc(-c2ccc3c(C(=O)NCCCN4CCCC4=O)n[nH]c3c2)cc1C(=O)NCc1ccccc1OC(F)(F)F [Example 177, 6-[6-methoxy-5-({[2-(trifluoro-methoxy)phenyl]methyl}-carbamoyl)pyridin-3-yl]-N-[3-(2-oxopyrrolidin-1-yl)propyl]-1H-indazole-3-carboxamide]",15,2.9
"COc1ncc(-c2ccc3c(C(=O)NC4CCN(C(C)=O)CC4)n[nH]c3c2)cc1C(=O)NCc1ccccc1OC(F)(F)F [Example 180, N-(1-acetylpiperidin-4-yl)-6-[6-methoxy-5-({[2-(trifluoro-methoxy)phenyl]methyl}carbam-oyl)pyridin-3-yl]-1H-indazole-3-carboxamide]",39,19
"COc1ncc(-c2ccc3c(C(=O)NC4CC(=O)N(C(C)C)C4)n[nH]c3c2)cc1C(=O)NCc1ccccc1OC(F)(F)F (centres unmarked) [Example 181, 6-[6-methoxy-5-({[2-(trifluoro-methoxy)phenyl]methyl}carbam-oyl)pyridin-3-yl]-N-[5-oxo-1-(propan-2-yl)pyrrolidin-3-yl]-1H-indazole-3-carboxamide, TFA]",82,27
"COc1ncc(-c2ccc3c(C(=O)NCCO)n[nH]c3c2)cc1C(=O)NCc1ccccc1OC(F)(F)F [Example 182, N-(2-hydroxyethyl)-6-[6-meth-oxy-5-({[2-(trifluoromethoxy)-phenyl]methyl}carbamoyl)-pyridin-3-yl]-1H-indazole-3-carboxamide]",83,12
"[2H]C([2H])([2H])C([2H])([2H])NC(=O)c1n[nH]c2cc(-c3cnc(OC)c(C(=O)NCc4ccccc4OC(F)(F)F)c3)ccc12 [Example 183, N-[(1,1,2,2,2-deutero)ethyl]-6-[6-methoxy-5-({[2-(trifluoro-methoxy)phenyl]methyl}carbam-oyl)pyridin-3-yl]-1H-indazole-3-carboxamide]",15,5.9
"CCN(CC)C1CCC(NC(=O)c2n[nH]c3cc(-c4cnc(OC)c(C(=O)NCc5ccccc5OC(F)(F)F)c4)ccc23)CC1 (centres unmarked) [Example 184, N-[4-(diethylamino)cyclohexyl]-6-[6-methoxy-5-({[2-(trifluoro-methoxy)phenyl]methyl}carbam-oyl)pyridin-3-yl]-1H-indazole-3-carboxamide, TFA]",88,7
"COc1ncc(-c2ccc3c(C(=O)NC4CCC(N(C)C)CC4)n[nH]c3c2)cc1C(=O)NCc1ccccc1OC(F)(F)F (centres unmarked) [Example 185, N-[4-(dimethylamino)cyclo-hexyl]-6-[6-methoxy-5-({[2-(trifluoromethoxy)phenyl]-methyl}carbamoyl)pyridin-3-yl]-1H-indazole-3-carboxamide]",110,13
"COc1ccccc1N1CC(NC(=O)c2n[nH]c3cc(-c4cnc(OC)c(C(=O)NCc5ccccc5OC(F)(F)F)c4)ccc23)CC1=O (centres unmarked) [Example 186, 6-[6-methoxy-5-({[2-(trifluoro-methoxy)phenyl]methyl}-carbamoyl)pyridin-3-yl]-N-[1-(2-methoxyphenyl)-5-oxo-pyrrolidin-3-yl]-1H-indazole-3-carboxamide]",13,95
